# Values of other authors as cited in PMC2714898 (European Journal of Clinical Pharmacology, 2009).
SMILES,half-life [h],"elimination half-life (t½) (averages, after oral AS) [h]"
"CCNCc1cc(Nc2ccnc3cc(Cl)ccc23)ccc1O [Desethylamodiaquine (DEAQ), N-desethylamodiaquine]",60 to 437,–
"C[C@H]1[C@@H](O)O[C@@H]2O[C@@]3(C)CC[C@H]4[C@H](C)CC[C@@H]1[C@@]24OO3 [Dihydroartemisinin (DHA), dihydroartemisinin]",–,0.65 to 2.59
